Experimental data from US11202789B2, “Method of treating glycogen storage disease” (Viking Therapeutics, Inc., priority 2016, dated 2021).

Test system: male ob/ob mice
Test: 9-week efficacy and safety study in male ob/ob mice
Assay type: in vivo
Details: T3 100 nmole/kg/day SC
Method: The objective of this study was to evaluate the efficacy and safety of Compound 2 treatment at doses of 3, 10, and 30 mg/kg/day for 9 weeks in male ob/ob mice. 3,3′,5-Triiodo-L-thyronine (T3) was used as a comparator in this study.
Methods: Seventy-eight adult male ob/ob mice were assigned to six different treatment groups (n=6-24/group). Animals were dosed daily with either vehicle [1% carboxymethylcellulose (CMC) in water, PO], T3 [(100 nmole/kg/day in aqueous solution, subcutaneous (SC)], or Compound 2 [3, 10 or 30 mg/kg/day in 1% CMC, PO]. Blood glucose and plasma cholesterol were measured weekly in all animals. Subsets of animals in the vehicle-treated and 30 mg/kg/day Compound 2-treated groups were sacrificed after 3, 6 and 9 weeks of treatment to analyze the temporal effects of Compound 2 on liver weight and liver triglyceride levels. Liver triglyceride levels, liver glycogen content, heart, liver and epididymal fat pad weights, and plasma clinical chemistry parameters were measured at sacrifice.

## N[C@@H](Cc1cc(I)c(Oc2ccc(O)c(I)c2)c(I)c1)C(=O)O [Compound T3, 3,3′,5-Triiodo-L-thyronine, reference compound]
  ALT levels: decreased
  increased plasma triglyceride levels: ~56%
  plasma albumin levels: decreased
  plasma calcium levels: decreased
  total plasma protein levels: decreased
9 weeks
  liver weight: lower
All time points, vs vehicle
  blood glucose levels: similar
At 9 weeks, vs vehicle
  total plasma cholesterol lower: ~66%
Vs vehicle
  terminal liver glycogen levels: similar
  terminal liver triglyceride levels: similar
